Measured values published in patent publication US20240268372A1, “Methods and Compositions for Extending Organ and Tissue Preservation” (The General Hospital Corporation, priority 2021, published 2024).

What was measured:
[1] = clinical trials for liver transplant and NASH; cited from earlier work
[2] = test system: discarded DCD human livers; assay: H&E histology of liver biopsies during NMP; details: EM, IHF and AHF livers
Description: Histology and immunohistochemistry: Core needle biopsies taken from the right liver lobe at indicated intervals were fixed in formalin and embedded in paraffin. Hematoxylin and eosin (H&E) stains were performed on all biopsies to assess the degree of necrosis, inflammatory cell infiltrate, and reperfusion injury using a validated scoring system (see, e.g., ref. 17). Immunohistochemistry for LC3 was performed as previously described (see, e.g., ref. 3).

[3] = test system: discarded DCD human livers; assay: Normothermic machine perfusion (NMP) of discarded human livers with emricasan in the perfusate: hepatocellular and cholangiocellular function
Text: Human liver perfusions: Sixteen human livers from donation after circulatory death, with consent for research, were included in this study after being turned down by all transplant centers in the respective region of procurement. Human livers were procured in standard fashion through two Organ Procurement Organizations (OPO): New England Donor Services (Waltham, MA, USA) and LiveOnNewYork (New York, NY). In addition, one liver was obtained through the International Institute for the Advancement of Medicine (IIAM, Edison, NJ), which originated from the Gift of Life Donor Program (Philadelphia, PA). Informed consent was obtained from donors by the OPO. The Massachusetts General Hospital and Lifespan Institutional Review Boards, as well as the two OPOs and IIAM, approved this study (No. 2011P001496). No organs were procured from prisoners and no vulnerable populations were included in this study.
Procurement techniques based on donation after circulatory death followed standard methods. Donor livers were flushed in situ with University of Wisconsin solution. Total warm ischemic time was defined as the period from extubation to cold flush. Functional WIT was defined as the period from asystole to cold flush. Cold ischemic time was defined from cold flush to initiation of machine perfusion. All livers were transported via ground courier. After arrival to the laboratory under static cold storage, livers underwent standard back bench preparation for machine perfusion.
Grafts were perfused on the Liver Assist device (Organ Assist, Groningen, Netherlands) using a previously described protocol (see, e.g., ref. 14). Briefly, perfusate composition consisted of O+ packed red blood cells, human albumin, Lactated Ringer's solution, and heparin. […] Perfusate, bile, and tissue biopsies were collected and analyzed at multiple time points. Grafts were assessed for adequate hepatocellular and cholangiocellular function. […] Cholangiocellular (biliary) viability metrics were measured according to van Leeuwen (see, e.g., ref. 15). […]

[4] = test system: discarded DCD human livers; assay: RNA sequencing of liver biopsies during NMP (differential expression, IPA, GO)
Description: RNA purification and sequencing: Core needle biopsies taken immediately prior to perfusion and after 3 and 6 hours of perfusion were used for transcriptome sequencing. […] The differential gene expression threshold for significance was set to a Benjamini-Hochberg false discovery rate (FDR)<0.05.
In brief, tissues samples from livers taken immediately prior to perfusion and after 3 and 6 hours of perfusion were used for transcriptome sequencing. Core needle biopsies from the right liver lobe were collected in RNAlater solution (Sigma-Millipore, Waltham, MA, USA) and stored overnight at 4° C. Tissue samples were then removed from solution and stored at −80° C. Total RNA was isolated using the RNeasy Mini Kit (Qiagen, Germantown, MD, USA) according to manufacturer guidelines. 500 ng of each sample was sequenced on an Illumina HiSeq 4000 using 9 PCR cycles by GENEWIZ (South Plainfield, NJ, USA). Raw RNA-Seq data files were transferred to the Brown University computing cluster via sFTP and aligned to the human genome build 38 using STAR 2.7.3a (see, e.g., ref. 25). While sequencing was performed in two batches, the alignment was performed on all samples simultaneously using the same settings.
In brief, raw read counts were normalized using the Trimmed Mean of M method following removal of low-count genes (fewer than 10 reads in the smallest library). Differential gene expression analysis was conducted in R (see, e.g., ref. 27) using edgeR (see, e.g., ref. 28). The significance cutoff for differential gene expression was set to a Benjamini-Hochberg false-discovery rate (FDR or q-value)<0.05. Canonical pathway and upstream regulator enrichment analysis was generated through Ingenuity Pathway Analysis (IPA, Qiagen) (see, e.g., ref. 29). […]
Gene ontology (GO) enrichment analysis was performed using the R package GOseq (see, e.g., ref. 31). […] The genes with the highest amount of variance explained by principal component 1, 2, or 3 cumulatively totaling to 10% of the total variance explained by the specified PC were further analyzed.

[5] = test system: discarded DCD human livers; assay: Perfusate plasma apoptosis biomarkers, cell-free DNA and cytokines during liver NMP (ELISA kits)
Description: With respect to the experimental group (emricasan, EM), 5 consecutive human livers turned down for transplant were enrolled. Emricasan, also known as IDN-6556 (MedChemExpress, Monmouth Junction, NJ), dissolved in DMSO was added to the circulating perfusate prior to initiation of liver perfusion at a dose of 5 mg/kg liver weight (1 mL total volume, 0.05% v/v total perfusate). Vehicle control (1 mL DMSO) was previously incorporated in the control liver perfusions (FIG. 6).
Protein Analysis: Perfusate collected at the indicated time points was centrifuged at 5000 g and the plasma collected and stored at −80° C. for later analysis. Enzyme-linked immunosorbent assays (ELISA) were performed for various proteins according to manufacturers' guidelines.

[6] = test system: rodent LT models; details: drug given at the time of liver procurement; cited from earlier work
[7] = test system: LT recipients; details: emricasan in preservation flush solution vs placebo group; cited from earlier work
[8] = test system: discarded DCD human livers; assay: Western immunoblot and LC3B immunohistochemistry of liver biopsies during NMP (UPR, autophagy, necroptosis)
Description: Sequential wedge biopsies from the right lobe of each liver were performed at indicated intervals, flash frozen in liquid nitrogen, and stored at −80° C. Tissue samples (20 mg) were homogenized and Western immunoblots performed as previously described (see, e.g., ref. 16). A full list of antibodies used is provided below in Table 3.
To compare target protein expression, densitometry quantification was conducted. Both proteins varied across samples and the changes were not consistent between the 2 proteins, with the variation representing the biologic variability in the human liver.
In brief, immunohistochemistry was performed using antibodies directed toward LC3B (Product No. NB100-2220, Novus Biologicals, Littleton, CO, USA). Paraffin sections (6 μm) were deparaffinized with xylene and rehydrated with graded ethanol. Antigen retrieval was performed by sub-boiling in 1×-diluted Dako Target Retrieval Solution for 10 min (DakoCytomation, Inc., Carpinteria, CA). Slides were then quenched in 3% H2O2 and blocked in 2.5% Normal Horse Serum (Vector Labs, Burlingame, CA) before overnight incubation in primary antibody (1:200 dilution) at 4° C. Slides were incubated with a horseradish-peroxidase conjugated secondary rabbit antibody (Vector Laboratories) for 1 hr prior to staining with DAB (Vector Laboratories). Slides were counterstained with hematoxylin. Omission of the primary antibody served as a negative control.

C[C@H](NC(=O)C(=O)Nc1ccccc1C(C)(C)C)C(=O)N[C@@H](CC(=O)O)C(=O)COc1c(F)c(F)cc(F)c1F [emricasan]
safety and tolerance profile [1]: excellent | inflammatory infiltrate or necrosis (H&E histology) [2]: no significant differences | number of emricasan-treated livers demonstrating adequate hepatocellular function ([3]; 5 livers treated, 5 mg/kg liver weight in perfusate, NMP): 4 | IRI in cholangiocytes / cholangiocellular function ([3]; end-ischemic NMP of DCD livers): did not appear to improve IRI in cholangiocytes | ischemia-reperfusion injury in hepatocytes ([3]; treatment during NMP after cold and warm ischemia): mitigated | enrichment of IRI canonical pathways (innate immunity, sinusoidal endothelial cell activation), IPA ([4]; 3 and 6 h vs pre-perfusion): minimal enrichment | differentially expressed genes after 3 and 6 hours of NMP vs pre-perfusion ([4]; compared to both control groups): markedly smaller set of DEGs | upregulation of pro-inflammatory and pro-death genes ([4]; compared to controls (viable and nonviable livers)): decreased upregulation | circulating cell-free DNA (DAMP) ([5]; NMP, compared to control groups): significantly reduced | perfusate caspase-3/7 enzyme activity ([5]; NMP, vs control groups): significantly lower | perfusate level of cleaved cytokeratin 18 ([5]; NMP, vs control groups): significantly lower | evidence of apoptosis (circulating cleaved cytokeratin 18 and caspase-3/7 activity) ([5]; after both 3 and 6 hours of NMP): significantly decreased | cell-free DNA in perfusate ([5]; at 1 and 6 hours of NMP): significantly lower | circulating interleukin-1β (IL-1β) ([5]; compared only to IHF livers): lower | circulating tumor necrosis factor-α (TNFα) ([5]; compared only to IHF livers): lower | perfusate interferon-γ (IFNG) ([5]; compared to AHF and IHF groups): significantly lower | perfusate interleukin-6 (IL-6) ([5]; compared to AHF and IHF groups): significantly lower | perfusate interleukin-8 (IL-8) ([5]; compared to AHF and IHF groups): significantly lower | survival in rodent LT models [6]: improved | AST and ALT levels in LT recipients [7]: significantly lower | shift of LC3B to granule staining pattern (immunohistochemistry) ([8]; 3 and 6 hr of NMP): not observed | induction of necroptosis ([8]; NMP with emricasan): did not lead to induction of necroptosis | Phospho-MLKL ([8]; before and during perfusion): below the limit of detection
